In paper PMC7539012, “Hyperphosphorylated tau aggregation and cytotoxicity modulators screen identified prescription drugs linked to Alzheimer's disease and cognitive functions” (Scientific Reports, 2020):
Structures can show the parent of a compound that is named as a salt.

tested on: T1, 1N4R p-tau; test: p-tau aggregation modulator screen of 1280-compound library (ThS fluorescence net change over 16 h); type: biochemical; conditions: not given;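 also: 30 µM compound with 6 µM p-tau over 16 h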
T1 construct: made in house; host or cells: E. coli (PIMAX system)

In order of falling ThS net change:
1. C[C@]12C/C(=C/O)C(=O)C[C@@H]1CC[C@@H]1[C@@H]2CC[C@@]2(C)[C@H]1CC[C@]2(C)O [Oxymetholone]  475
2. CNNCc1ccc(C(=O)NC(C)C)cc1 [Procarbazine hydrochloride]  457
3. CCC(=O)O[C@H]1CC[C@H]2[C@@H]3CCC4=CC(=O)CC[C@]4(C)[C@H]3CC[C@]12C [Testosterone propionate]  452
4. C[C@]12CC[C@H](O)C[C@@H]1CC[C@@H]1[C@@H]2CC[C@]2(C)C(=O)CC[C@@H]12 [Epiandrosterone]  440
5. CN(C)C(=O)C(CCN1CCC(O)(c2ccc(Cl)cc2)CC1)(c1ccccc1)c1ccccc1 [Loperamide hydrochloride]  326

same assay, conditions: 1280-compound library screen; ThS fluorescence net change over 16 h

In order of rising ThS net change:
1. Cl.N=C(N)NC(=N)N1CCOCC1 [Moroxidine hydrochloride]  379
2. OC(CCN1CCCCC1)(c1ccccc1)C1CC2C=CC1C2 (stereo not drawn) [Biperiden hydrochloride]  380
3. Cc1c(NC(=O)c2cccnc2)c(=O)n(-c2ccccc2)n1C [Nifenazone]  380
4. COc1ccc(NS(=O)(=O)c2ccc(N)cc2)nn1 [Sulfamethoxypyridazine]  392
5. CC1(C)S[C@@H]2[C@H](NC(=O)[C@H](NC(=O)N3CCNC3=O)c3ccccc3)C(=O)N2[C@H]1C(=O)O [Azlocillin sodium salt]  396
6. CCOc1ccc(NC(C)=O)cc1 [Phenacetin]  400
7. N=C(N)NC(=O)c1nc(Cl)c(N)nc1N [Amiloride hydrochloride dihydrate]  401
8. NCC(CC(=O)O)c1ccc(Cl)cc1 (racemic) [Baclofen (R,S)]  407
9. O=C(NCC(O)CO)c1c(I)c(C(=O)NCC(O)CO)c(I)c(N(CCO)C(=O)CO)c1I (stereo not drawn) [Ioversol]  409
10. Cc1cccc(C)c1NC(=O)C(C)N (stereo not drawn) [Tocainide hydrochloride]  412

same assay, conditions: library screen, ThS fluorescence net change over 16 h with p-tau

In order of falling ThS net change:
1. CN1CCC(=C2c3ccccc3Sc3ccccc32)CC1 [Pimethixene maleate]  320
2. CC1COc2c(N3CCN(C)CC3)c(F)cc3c(=O)c(C(=O)O)cn1c23 (stereo not drawn) [Ofloxacin]  311
3. Nc1nc(N)nc(-c2cc(Cl)ccc2Cl)n1 [Irsogladine maleate]  308
4. O=C(O)c1cc(-c2ccc(F)cc2F)ccc1O [Diflunisal]  304
5. N[C@@H](Cc1cc(I)c(Oc2ccc(O)c(I)c2)c(I)c1)C(=O)O [Liothyronine]  298
6. COC(=O)C1=C(C#N)NC(C)=C(C(=O)OC(C)C)C1c1cccc([N+](=O)[O-])c1 (stereo not drawn) [Nilvadipine]  266
7. O=C(Nc1ccc([N+](=O)[O-])cc1Cl)c1cc(Cl)ccc1O [Niclosamide]  199

same assay, conditions: p-tau aggregation modulator screen of 1280-compound library; ThS fluorescence net change

In order of falling ThS net change:
1. CCn1cc(C(=O)O)c(=O)c2cnc(N3CCNCC3)nc21 [Pipemidic acid]  377
2. O=C(O)Cc1ccccc1Nc1c(Cl)cccc1Cl [Diclofenac sodium]  376
3. NS(=O)(=O)c1cc2c(cc1Cl)NC(C(Cl)Cl)NS2(=O)=O (stereo not drawn) [Trichlormethiazide]  375
4. Fc1ccc(C(c2ccc(F)cc2)N2CCN(C/C=C/c3ccccc3)CC2)cc1 [Flunarizine dihydrochloride]  370
5. Cc1cnc(C(=O)O)c[n+]1[O-] [Acipimox]  369
6. C[C@@H]1CCC[C@H](C)N1NC(=O)c1ccc(Cl)c(S(N)(=O)=O)c1 [Clopamide]  369
7. CN(C)CCCO[C@@H]1[C@H]2OC(C)(C)O[C@H]2O[C@@H]1[C@H](O)CO [Amiprilose hydrochloride]  367
8. CCCCN(CCCC)CCCOC(=O)c1ccc(N)cc1 [Butacaine]  367
9. NC(=O)c1ccc[n+]([C@@H]2O[C@H](COP(=O)([O-])OP(=O)(O)OC[C@H]3O[C@@H](n4cnc5c(N)ncnc54)[C@H](O)[C@@H]3O)[C@@H](O)[C@H]2O)c1 [Nadide]  366
10. Cc1cc(NC(=O)C2=C(O)c3ccccc3S(=O)(=O)N2C)no1 [Isoxicam]  364
11. c1ccc2c(c1)CCCC2C1=NCCN1 (stereo not drawn) [Tetrahydrozoline hydrochloride]  362
12. c1ccc(CC2=NCCN2)cc1 [Tolazoline hydrochloride]  360
13. C[C@]12CC[C@@H]3c4ccc(OS(=O)(=O)O)cc4CC[C@H]3[C@@H]1CCC2=O [Estropipate]  359
14. COCC(=O)Nc1c(I)c(C(=O)NCC(O)CO)c(I)c(C(=O)N(C)CC(O)CO)c1I (stereo not drawn) [Iopromide]  359
15. OCc1cc(C(O)CNCCCCCCOCCCCc2ccccc2)ccc1O (stereo not drawn) [Salmeterol]  358
16. CN1CCN(C2=Nc3ccccc3Oc3ccc(Cl)cc32)CC1 [Loxapine succinate]  358
17. Cc1cc(CC(=O)[O-])n(C)c1C(=O)c1ccc(Cl)cc1.[Na+] [Zomepirac sodium salt]  356
18. Nc1ccc(S(=O)(=O)Nc2ccnn2-c2ccccc2)cc1 [Sulfaphenazole]  334
19. CNC(=C[N+](=O)[O-])NCCSCc1csc(CN(C)C)n1 [Nizatidine]  334
20. Clc1cccc(Cl)c1N=C1NCCN1 [Clonidine hydrochloride]  330
21. CN1C(C(=O)Nc2ccccn2)=C(O)c2ccccc2S1(=O)=O [Piroxicam]  329

same assay, conditions: p-tau aggregation modulator screen of 1280-compound library; […]

In order of falling ThS net change:
1. Cc1cc(C)nc([N-]S(=O)(=O)c2ccc(N)cc2)n1.[Na+] [Sulfamethazine sodium salt]  366
2. C[C@@]12N[C@@H](Cc3ccccc31)c1ccccc12.O=C(O)/C=C\C(=O)O [(-)-MK 801 hydrogen maleate]  354

same assay, conditions: p-tau aggregation modulator screen of the compound library, ThS fluorescence net change

In order of rising ThS net change:
1. CC(C)[C@H]1CC[C@H](C(=O)N[C@H](Cc2ccccc2)C(=O)O)CC1 [Nateglinide]  413
2. CC(C)(Sc1cc(C(C)(C)C)c(O)c(C(C)(C)C)c1)Sc1cc(C(C)(C)C)c(O)c(C(C)(C)C)c1 [Probucol]  414
3. C[C@]12C[C@H](O)[C@H]3[C@@H](CCC4=CC(=O)CC[C@@]43C)[C@@H]1CC[C@@H]2C(=O)CO [Corticosterone]  416
4. OCC(O)CN1CCN(c2ccccc2)CC1 (racemic) [Dropropizine (R,S)]  418
5. CCC[C@H](N[C@@H](C)C(=O)N1[C@H](C(=O)O)C[C@@H]2CCCC[C@@H]21)C(=O)OCC [Perindopril]  426
6. O=C1Nc2ccc(Cl)cc2[C@@](C#CC2CC2)(C(F)(F)F)O1 [Efavirenz]  436
7. CCCNC(C)C(=O)Nc1c(C)csc1C(=O)OC (stereo not drawn) [Articaine hydrochloride]  450
8. Cc1cccc(Nc2ccncc2S(=O)(=O)NC(=O)NC(C)C)c1 [Torsemide]  455
9. COc1ccc(CN2CCN(C(c3ccc(F)cc3)c3ccc(F)cc3)CC2)c(OC)c1OC.Cl [Lomerizine hydrochloride]  458
10. CCCc1nn(C)c2c(=O)[nH]c(-c3cc(S(=O)(=O)N4CCN(C)CC4)ccc3OCC)nc12 [Sildenafil]  461
11. COc1ccc2c(c1)C(=O)N(CCc1ccc(S(=O)(=O)NC(=O)NC3CCCCC3)cc1)C(=O)C2(C)C [Gliquidone]  492
12. CCOC(=O)OC(C)OC1=C(C(=O)Nc2ccccn2)N(C)S(=O)(=O)c2ccccc21 (stereo not drawn) [Ampiroxicam]  493
